Assay results reported in the NIST ThermoML archive (doi:10.1016/j.jct.2016.03.030).

Assay: xn = mol fraction of the nth substance listed
Conditions: 100 kPa, Liquid; for viscosity: Falling or rolling sphere viscometry; for mass density: Vibrating tube method

CCCCC[N+]1(C)CCOCC1.[Br-] [4-methyl-4-pentylmorpholinium bromide] + O
Conditions | mass density, 298.15 K [kg/m3] | mass density, 303.15 K [kg/m3] | mass density, 308.15 K [kg/m3] | mass density, 313.15 K [kg/m3] | mass density, 318.15 K [kg/m3] | viscosity, 298.15 K [mPa·s] | viscosity, 303.15 K [mPa·s] | viscosity, 308.15 K [mPa·s] | viscosity, 313.15 K [mPa·s] | viscosity, 318.15 K [mPa·s]
x1 = 0.0316 | 1072.8 | 1070.5 | 1067.9 | 1065.3 | 1062.6 | 1.957 | 1.7 | 1.484 | 1.309 | 1.159
x1 = 0.0695 | 1127.6 | 1124.5 | 1121.3 | 1118.1 | 1114.9 | 4.131 | 3.505 | 2.997 | 2.586 | 2.252
x1 = 0.0965 | 1153.8 | 1150.6 | 1147.2 | 1143.9 | 1140.5 | 6.746 | 5.63 | 4.74 | 4.035 | 3.465
x1 = 0.1196 | 1170 | 1166.6 | 1163.3 | 1159.8 | 1156.4 | 9.795 | 8.076 | 6.709 | 5.642 | 4.796
x1 = 0.1522 | 1187.7 | 1184.4 | 1181 | 1177.5 | 1174.1 | 16.25 | 13.14 | 10.79 | 8.994 | 7.569
x1 = 0.2054 | 1208.2 | 1204.9 | 1201.5 | 1198.1 | 1194.7 | 36.11 | 28.07 | 22.24 | 17.82 | 14.56
x1 = 0.219 | 1212.2 | 1208.8 | 1205.5 | 1202.1 | 1198.7 | 44.38 | 34.04 | 26.62 | 21.2 | 17.13
x1 = 0.2438 | 1218.9 | 1215.6 | 1212.2 | 1208.9 | 1205.5 | 64.59 | 48.66 | 37.45 | 29.17 | 23.22
x1 = 0.2754 | 1226 | 1222.7 | 1219.4 | 1216.1 | 1212.7 | 103.9 | 76.46 | 57.57 | 44.03 | 34.22
